One may read the EC50 as the concentration that produces a half-maximal response.

This test concerns the target T1, human M4 muscarinic acetylcholine receptor (Homo sapiens, UniProt P08173).
T1 construct: expressed in transfected cells; host or cells: CHO-K1
T1 sequence (P08173 1-479): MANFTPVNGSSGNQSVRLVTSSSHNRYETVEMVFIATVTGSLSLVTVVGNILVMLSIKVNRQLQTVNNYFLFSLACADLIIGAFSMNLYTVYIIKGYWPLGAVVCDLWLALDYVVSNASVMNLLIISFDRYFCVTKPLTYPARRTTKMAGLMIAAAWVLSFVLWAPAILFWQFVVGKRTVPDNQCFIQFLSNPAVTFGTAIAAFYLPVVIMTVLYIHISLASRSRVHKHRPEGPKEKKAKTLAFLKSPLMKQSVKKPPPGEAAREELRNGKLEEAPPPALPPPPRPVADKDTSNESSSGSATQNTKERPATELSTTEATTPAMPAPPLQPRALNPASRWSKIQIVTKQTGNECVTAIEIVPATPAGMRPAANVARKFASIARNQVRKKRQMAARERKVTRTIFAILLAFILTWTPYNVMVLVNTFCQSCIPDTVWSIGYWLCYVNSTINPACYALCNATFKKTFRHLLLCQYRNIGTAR
In words: human FLIPR-based M4 PAM assay (CHO-K1 cells with human M4 receptor and Gαqi5, calcium dye fluorescence, acetylcholine at 20% of maximum response). It is filed as cell-based. Conditions: inflection point (IP) of 4 parameter logistic dose response curve, human M4 receptor + Gαqi5, FLIPR Tetra. The method in brief: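 The FLIPR read recorded 4 min after compound was added across a concentration range, then 3.5 min after acetylcholine giving 20% of its maximal response, with an occasional extra EC70 addition. Cells were dye-loaded for about 1 h at 37 °C. Potency is the curve inflection point from a four-parameter logistic fit.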
For `Cc1cn2c(=O)[nH]nc2nc1N1CC[C@@H](Oc2ccc3c(cnn3C)c2)[C@@H](F)C1` [Example 5, 7-((3S,4R)-3-fluoro-4-((1-methyl-1H-indazol-5-yl)oxy)piperidin-1-yl)-6-methyl-[1,2,4]triazolo[4,3-a]pyrimidin-3(2H)-one], the EC50 worked out at 62 nM.
The result for `COc1ccc(OC2CCN(c3nc4c(cc3C)CN(C(=O)C(C)(C)C)C4)CC2)cn1` [Example 45, 1-(2-(4-((6-methoxypyridin-3-yl)oxy)piperidin-1-yl)-3-methyl-5,7-dihydro-6H-pyrrolo[3,4-b]pyridin-6-yl)-2,2-dimethylpropan-1-one] reads 235 nM; that for `COc1ccc(OC2CCN(c3nc4c(cc3C)C(=O)C(F)(F)C4)CC2)cn1` [Example 70, 6,6-difluoro-2-(4-((6-methoxypyridin-3-yl)oxy)piperidin-1-yl)-3-methyl-6,7-dihydro-5H-cyclopenta[b]pyridin-5-one], 63 nM; that for `Cc1cn2c(=O)[nH]nc2nc1N1CCC(OCC2CCCC2)CC1` [Example 8, 7-(4-(cyclopentylmethoxy)piperidin-1-yl)-6-methyl-[1,2,4]triazolo[4,3-a]pyrimidin-3(2H)-one], 242 nM.
For `Cc1cn2c(=O)n(C)nc2nc1N1CCC(Oc2cccc(C#N)c2)CC1` [Example 17, 3-((1-(2,6-dimethyl-3-oxo-2,3-dihydro-[1,2,4]triazolo[4,3-a]pyrimidin-7-yl)piperidin-4-yl)oxy)benzonitrile], the concentration for a half-maximal effect (EC50) was found to be 36 nM.
